Results as given in patent publication US7652020B2, “Compounds for the treatment of inflammatory disorders” (Schering Corporation, priority 2004, dated 2010).

target: T1, purified catalytic domain of recombinant human TACE (rhTACEc) (Homo sapiens, UniProt P78536, N452Q/S266A); assay: TACE kinetic assay: cleavage of internally quenched peptide substrate SPDL-3, fluorescence; assay type: biochemical; details: TACE inhibitory activity, class symbols; read-out: Ki
T1 construct: Residue 215 to 477 with two mutation (S266A and N452Q) and a 6×His tail; 6xHis (C); made in house; host or cells: baculovirus/Hi5 insect cells
T1 sequence (P78536 215-477 S266A/N452Q): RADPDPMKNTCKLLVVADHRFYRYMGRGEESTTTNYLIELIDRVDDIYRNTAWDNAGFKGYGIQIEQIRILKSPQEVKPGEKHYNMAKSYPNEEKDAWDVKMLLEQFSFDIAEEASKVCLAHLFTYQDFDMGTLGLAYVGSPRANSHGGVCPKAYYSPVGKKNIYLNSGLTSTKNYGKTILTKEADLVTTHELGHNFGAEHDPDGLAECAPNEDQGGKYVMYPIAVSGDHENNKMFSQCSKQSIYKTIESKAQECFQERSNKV
Protocol: TACE activity is determined by a kinetic assay measuring the rate of increase in fluorescent intensity generated by TACE catalyzed cleavage of an internally quenched peptide substrate (SPDL-3). […] It is purified from the baculovirus/Hi5 cells expression system using affinity chromatography. […] MCA is (7-Methoxycoumarin-4-yl)acetyl. Dpa is N-3-(2,4-Dinitrophenyl)-L-2,3-diaminopropionyl.
A 50 μl assay mixture contains 20 mM HEPES, pH 7.3, 5 mM CaCl2, 100 μM ZnCl2, 2% DMSO, 0.04% Methylcellulose, 30 μM SPDL-3, 70 pM rhTACEc and a test compound. RhTACEc is pre-incubated with the testing compound for 90 min. at 25° C. Reaction is started by addition of the substrate. […] Rate of enzymatic reaction is shown as Units per second. Effect of a test compound is shown as % of TACE activity in the absence of the compound.

Row | Ki | SMILES
1 | 20 to 100 nM | C[C@@H](NC(=O)[C@H](O)[C@@H](O)C(=O)N1CCc2c(cnn2C)C1)c1ccc(-n2cccn2)cc1 [Compound 2074]
2 | 20 to 100 nM | C[C@@H](NC(=O)[C@H](O)[C@@H](O)C(=O)N1CCc2nc(N)ncc2C1)c1ccc(-n2cccn2)cc1 [Compound 2075]
3 | 100 to 1000 nM | C[C@@H](NC(=O)[C@H](O)[C@@H](O)C(=O)N1CCc2ncncc2C1)c1ccc(-n2cccn2)cc1 [Compound 2079]
4 | > 1000 nM | O=C([C@H](O)[C@@H](O)c1cncc(-c2ccc(-c3ccccc3)cc2)n1)N1Cc2ccccc2C1 [Compound 2403]
5 | 20 to 100 nM | C[C@@H](NC(=O)[C@H](O)[C@@H](O)C(=O)N1CCCCC1)c1ccc(-n2cccn2)cc1 [Compound 2408]
6 | 20 to 100 nM | C[C@](O)(C(=O)NCC1CCN(c2ccc(F)cc2C#N)CC1)[C@@H](O)C(=O)N1Cc2ccncc2C1 [Compound 2041]
7 | 20 to 100 nM | C[C@@H](NC(=O)[C@H](O)[C@@H](O)C(=O)N1CC(C)(C)CC1(C)c1cccc(Cl)c1)c1ccc(-n2cccn2)cc1 (some centres unmarked) [Compound 2238]
8 | > 1000 nM | CC(c1cccc(Cl)c1)N(CC1CC1)C(=O)[C@H](O)[C@@H](O)C(=O)N[C@H](C)c1ccc(-n2cccn2)cc1 (some centres unmarked) [Compound 2485]
9 | < 20 nM | C[C@@H](NC(=O)[C@H](O)[C@@H](O)C(=O)N1CCC[C@@H]1c1csc(N)n1)c1ccc(-n2cccn2)cc1 [Compound 2255]
10 | 100 to 1000 nM | N#Cc1cc(F)ccc1N1[C@@H]2CC[C@H]1CC(CNC(=O)[C@H](O)[C@@H](O)C(=O)N1Cc3ccccc3C1)C2 (some centres unmarked) [Compound 2149]
11 | < 20 nM | CCNc1nc([C@@H]2c3ccccc3CN2C(=O)[C@H](O)[C@@H](O)C(=O)N[C@H](C)c2ccc(-n3cccn3)cc2)cs1 [Compound 2595]
12 | > 1000 nM | Cn1c(Br)cnc1[C@H](O)[C@@H](O)C(=O)NCC1CCN(c2ccc(F)cc2C#N)CC1 [Compound 2372]
13 | 20 to 100 nM | C[C@@H](NC(=O)[C@H](O)[C@@H](O)C(=O)N(C)C1Cc2ccccc2C1)c1ccc(-n2cccn2)cc1 [Compound 2489]
14 | 20 to 100 nM | NC[C@@H]1[C@H]2CN(C(=O)[C@H](O)[C@@H](O)C(=O)NCC3CCN(c4ccccc4OC(F)(F)F)CC3)C[C@@H]12 [Compound 2156]
15 | < 20 nM | C[C@@H](NC(=O)[C@H](O)[C@@H](O)C(=O)N1CCCC1(C)c1ccccc1)c1ccc(-n2cccn2)cc1 (some centres unmarked) [Compound 2235]
16 | > 1000 nM | COc1nc(CNC(=O)[C@H](O)[C@@H](O)C(=O)N2CCCC2)ccc1-c1ccccc1OC(F)(F)F [Compound 2346]
17 | < 20 nM | C[C@@H](NC(=O)[C@H](O)[C@@H](O)C(=O)N1CCCC1(C)c1nccs1)c1ccc(-n2cccn2)cc1 (some centres unmarked) [Compound 2251]
18 | 100 to 1000 nM | C[C@@H](NC(=O)[C@H](O)[C@@H](O)C(=O)N1C[C@H]2CNC[C@H]2C1)c1ccc(-n2cccn2)cc1 [Compound 2424]
19 | 100 to 1000 nM | C[C@@H](NC(=O)[C@](C)(O)[C@@H](O)C(=O)N1CCc2ncccc2C1)c1ccc(-n2cccn2)cc1 [Compound 2078]
20 | < 20 nM | C[C@@H](NC(=O)[C@H](O)[C@@H](O)C(=O)N1CCC[C@@H]1c1csc(NS(C)(=O)=O)n1)c1ccc(-n2cccn2)cc1 [Compound 2581]
21 | > 1000 nM | Cn1c([C@H](O)[C@@H](O)C(=O)NCC2CCN(c3ccc(F)cc3C#N)CC2)nc2ccccc21 [Compound 2394]
22 | < 20 nM | CNc1nc([C@H]2C[C@H]3C[C@H]3N2C(=O)[C@H](O)[C@@H](O)C(=O)N[C@H](C)c2ccc(-n3cccn3)cc2)cs1 [Compound 2245]
23 | < 20 nM | C[C@@H]1CN(c2ccccc2C#N)CCC1CNC(=O)[C@H](O)[C@@H](O)C(=O)N1Cc2ccccc2C1 (some centres unmarked) [Compound 2143]
24 | 100 to 1000 nM | C[C@@H]1CCC[C@H](C)N1C(=O)[C@H](O)[C@@H](O)C(=O)N[C@H](C)c1ccc(-n2cccn2)cc1 [Compound 2409]
25 | > 1000 nM | Cn1cnnc1[C@H](O)[C@@H](O)C(=O)NCC1CCN(c2ccc(F)cc2C#N)CC1 [Compound 2376]
26 | < 20 nM | CC(C)Nc1nc([C@H]2c3ccc(Cl)cc3CCN2C(=O)[C@H](O)[C@@H](O)C(=O)N[C@H](C)c2ccc(-n3cccn3)cc2)cs1 [Compound 2589]

Row | Ki | SMILES
27 | 20 to 100 nM | C[C@@H](NC(=O)[C@H](O)[C@@H](O)C(=O)N1CCc2cccnc2C1)c1ccc(-n2cccn2)cc1 [Compound 2083]
28 | 20 to 100 nM | C[C@@H](NC(=O)[C@H](O)[C@@H](O)C(=O)N1CCc2ccccc21)c1ccc(-n2cccn2)cc1 [Compound 2441]
29 | 20 to 100 nM | CC1c2cncnc2CN1C(=O)[C@H](O)[C@@H](O)C(=O)N[C@H](C)c1ccc(-n2cccn2)cc1 (some centres unmarked) [Compound 2050]
30 | 20 to 100 nM | O=C(NCC1CCN(c2ccccc2OCCC2CCCCC2)CC1)[C@H](O)[C@@H](O)C(=O)N1CCCC1 [Compound 2158]
31 | < 20 nM | Cc1noc([C@H]2c3ccccc3CN2C(=O)[C@H](O)[C@@H](O)C(=O)N[C@H](C)c2ccc(-n3cccn3)cc2)n1 (stereo in doubt) [Compound 2528]
32 | < 20 nM | C[C@@H](NC(=O)[C@H](O)[C@@H](O)C(=O)N1CC=C[C@@H]1c1cccc(Cl)c1)c1ccc(-n2cccn2)cc1 [Compound 2264]
33 | > 1000 nM | O=C([C@H](O)[C@@H](O)c1cncc(N2CCN(c3ccccc3)CC2)n1)N1Cc2ccccc2C1 [Compound 2393]
34 | < 20 nM | CCOc1ncccc1-c1ccc(CNC(=O)[C@H](O)[C@@H](O)C(=O)N2CCC[C@@H]2c2cccc(Cl)c2)cc1 [Compound 2334]
35 | > 1000 nM | COc1cc([C@@H](C)NC(=O)[C@](C)(O)[C@@H](O)C(=O)N2Cc3cccnc3C2)ccc1Br [Compound 2356]
36 | 100 to 1000 nM | Cn1c(Cc2ccccc2)cnc1[C@H](O)[C@@H](O)C(=O)NCC1CCN(c2ccc(F)cc2C#N)CC1 [Compound 2365]
37 | 20 to 100 nM | CNc1ncc2c(n1)C(C)N(C(=O)[C@H](O)[C@@H](O)C(=O)N[C@H](C)c1ccc(-n3cccn3)cc1)C2 (some centres unmarked) [Compound 2053]
38 | 100 to 1000 nM | CCOc1ncccc1-c1ccc(CNC(=O)[C@H](O)[C@@H](O)C(=O)N2CCCC2)cc1 [Compound 2335]
39 | > 1000 nM | CC(C)CN(C(=O)[C@H](O)[C@@H](O)C(=O)N[C@H](C)c1ccc(-n2cccn2)cc1)C(C)c1cccc(Cl)c1 (some centres unmarked) [Compound 2482]
40 | < 20 nM | C[C@@H](NC(=O)[C@H](O)[C@@H](O)C(=O)N1CCc2ccccc2C1)c1ccc(-n2cccn2)cc1 [Compound 2438]
41 | < 20 nM | C[C@@H](NC(=O)[C@H](O)[C@@H](O)C(=O)N1CCC[C@@H]1c1cccc(Cl)c1)c1ccc(-n2cccn2)cc1 [Compound 944]
42 | 100 to 1000 nM | CCOc1cc(F)ccc1-c1ccc(CNC(=O)[C@H](OC)[C@@H](O)C(=O)N2Cc3cccnc3C2)cc1 [Compound 2477]
43 | 100 to 1000 nM | C[C@@H](NC(=O)[C@H](O)[C@@H](O)C(=O)N1CC(C)(C)CC1(C)c1nccs1)c1ccc(-n2cccn2)cc1 (some centres unmarked) [Compound 2241]
44 | 100 to 1000 nM | C[C@H]1CN(c2ccccc2C#N)CCC1CNC(=O)[C@H](O)[C@@H](O)C(=O)N1CCC[C@@H]1c1ccccc1 (some centres unmarked) [Compound 2145]
45 | < 20 nM | CNc1nc(C2c3ccccc3CN2C(=O)[C@H](O)[C@@H](O)C(=O)N[C@H](C)c2ccc(-n3cccn3)cc2)cs1 (some centres unmarked) [Compound 2445]
46 | < 20 nM | CCNc1nc([C@H]2CCCN2C(=O)[C@H](O)[C@@H](O)C(=O)N[C@H](C)c2ccc(-n3cccn3)cc2)cs1 [Compound 2256]
47 | < 20 nM | CNc1nccc([C@H]2CCCN2C(=O)[C@H](O)[C@@H](O)C(=O)N[C@H](C)c2ccc(-n3cccn3)cc2)n1 [Compound 2249]
48 | 20 to 100 nM | CC(C)(NC(=O)[C@H](O)[C@@H](O)C(=O)N1CCCC1)C1CCN(c2ccc(F)cc2C#N)CC1 [Compound 2157]
49 | < 20 nM | CC(C)Nc1nc([C@H]2CCCN2C(=O)[C@H](O)[C@@H](O)C(=O)N[C@H](C)c2ccc(-n3cccn3)cc2)cs1 [Compound 2257]
50 | 20 to 100 nM | CNc1nc([C@H]2C[C@@H]3C[C@@H]3N2C(=O)[C@H](O)[C@@H](O)C(=O)N[C@H](C)c2ccc(-n3cccn3)cc2)cs1 [Compound 2246]
51 | 100 to 1000 nM | N#Cc1cc(F)ccc1N1C[C@@H]2C(CNC(=O)[C@H](O)[C@@H](O)C(=O)N3CCCC3)[C@@H]2C1 (some centres unmarked) [Compound 2147]

same assay, conditions: TACE, representative compounds, numeric values; read-out: Ki

Row | Ki | SMILES
52 | 0.74 nM | C[C@@H](NC(=O)[C@H](O)[C@@H](O)C(=O)N1Cc2ccncc2C1)C1CCN(c2ccccc2OC(F)(F)F)CC1
53 | 1.54 nM | CC#CCOc1cc([C@@H](C)NC(=O)[C@H](O)[C@@H](O)C(=O)N2CC=CC2c2cccc(Cl)c2)ccc1-n1cccn1 (some centres unmarked) [drawing 1314]
54 | 1 nM | Cc1nc2ccccc2n1Cc1csc(CNC(=O)[C@H](O)[C@@H](O)C(=O)N2CCCC2c2cccc(N(C)C)c2)n1 (some centres unmarked)
55 | 1.4 nM | CNc1nc([C@H]2C[C@H]3C[C@H]3N2C(=O)[C@H](O)[C@@H](O)C(=O)N[C@H](C)c2ccc(-n3cccn3)cc2)cs1 [drawing 1312]
56 | 0.38 nM | CNc1nc([C@H]2CCCN2C(=O)[C@H](O)[C@@H](O)C(=O)N[C@H](C)c2ccc(-n3cccn3)cc2)c(S(C)(=O)=O)s1 [drawing 1294]
57 | 2.5 nM | Cc1cccc(C)c1Cc1csc(CNC(=O)[C@H](O)[C@@H](O)C(=O)N2CCCC2c2cccc(N3CCN(C)CC3)c2)n1 (some centres unmarked)
58 | 3.6 nM | CCOC(=O)c1ccccc1-c1ccc(CNC(=O)[C@H](O)[C@@H](O)C(=O)N2CCC[C@@H]2c2ccccc2)cc1
59 | 1.44 nM | CC#CCOc1cc([C@@H](C)NC(=O)[C@](C)(O)[C@@H](O)C(=O)N2Cc3cccnc3C2)ccc1-n1cccn1 [drawing 1313]
